Measured values: patent publication US9447134B2 (priority 2012, dated 2016)

Tests used:
Bu. mallei IMPDH = assay type: biochemical, Burkholderia mallei; conditions: FIG. 24
F. tularensis IMPDH = F. tularensis IMPDH (Francisella tularensis, UniProt Q5NFC2); test: biochemical
B. anthracis IMPDH = B. anthracis IMPDH (Bacillus anthracis, UniProt A0A6L8P2U9); test: biochemical
CpIMPDH = target: T1, CpIMPDH (Cryptosporidium parvum, UniProt Q8T6T2); conditions: read-out: IC50 against CpIMPDH
T1 sequence (Q8T6T2 1-400): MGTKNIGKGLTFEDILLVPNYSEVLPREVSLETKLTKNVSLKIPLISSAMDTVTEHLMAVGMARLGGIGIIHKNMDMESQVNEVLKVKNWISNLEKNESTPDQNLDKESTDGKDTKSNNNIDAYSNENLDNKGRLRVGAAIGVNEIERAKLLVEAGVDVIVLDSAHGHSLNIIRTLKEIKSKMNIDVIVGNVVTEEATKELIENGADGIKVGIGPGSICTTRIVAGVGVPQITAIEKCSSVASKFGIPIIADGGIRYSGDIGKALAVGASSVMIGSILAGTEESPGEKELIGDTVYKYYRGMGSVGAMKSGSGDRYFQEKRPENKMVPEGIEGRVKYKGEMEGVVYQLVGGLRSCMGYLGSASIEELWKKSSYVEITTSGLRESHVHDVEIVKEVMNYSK

S. pyogenes IMPDH = S. pyogenes IMPDH (Streptococcus pyogenes, UniProt P0C0H6); test: biochemical
gut microbiota = conditions: 250 mg/kg daily, 7 days, compared with vehicle
[1] = Tissue distribution of P131 in mice; conditions: 24 h after a single 83 mg/kg oral dose
A. baumannii IMPDH = A. baumannii IMPDH (Acinetobacter baumannii, UniProt D0CF46); test: biochemical
C. parvum = conditions: IL-12 knockout mice, 250 mg/kg daily oral gavage
Caco-2 cells [2] = test: Efflux from preloaded Caco-2 cells; assay type: in vitro ADME, human; conditions: preincubated with 100 μM
Method: FIG. 37 depicts the amount of P131 remaining in Caco-2 cells after the cells were loaded with different concentrations of P131 for 2 h at 37° C. in HBSS. The efflux tin is −1 h for loading at 100 μM and 2 h for 20 μM and 5 μM.
We preloaded Caco-2 cells with 5, 20 or 100 μM P131, then measured efflux (FIG. 37). The initial intracellular concentrations of P131 were dose dependent and scaled with the extracellular concentration for the 5 and 20 μM preincubation conditions. […] P131 efflux was very slow under all three conditions, with tin of 1-2 h.

[3] = Plasma pharmacokinetics in C57BL/6 mice; assay type: in vivo, mouse
Method: FIG. 32 tabulates the pharmacokinetic parameters for urea CpIMPDH inhibitors. C57BL/6 mice received a single dose of 250 mg/kg in 10% DMSO/corn oil by oral gavage.
Given the limited efficacy of current treatments, the pharmacokinetic and physicochemical properties required for in vivo efficacy have not been established. […] P82 is the primary product of P83 metabolism, so the concentration of P82 in plasma was also measured during P83 treatment.
PK was assessed at either the Stony Brook Translation Experimental Laboratory Therapeutics (Stony Brook, NY) or GVK Biosciences (Hyderabad, India).

Caco-2 cells [4] = test: Uptake in Caco-2 cells; assay type: in vitro ADME, human; conditions: extracellular concentration 10 μM
Method: FIG. 33 tabulates urea CpIMPDH inhibitor permeability and uptake in Caco-2 TC7 cells. All compounds at 10 μM, pH 7.4 on both sides. Solid recovery >80% in all cases. a. Approximate intracellular concentration, assuming 4 μL of water for 1 mg of cellular protein.
To further investigate the relationship between intestinal accumulation and antiparasitic activity, we measured the uptake of the CpIMPDH inhibitors in Caco-2 cells, a widely used model of human intestinal epithelial cells. Uptake varied over a range of 2000-fold among the eight CpIMPDH inhibitors (FIG. 33). […] All of the other compounds accumulated intracellular concentrations in excess of the extracellular concentration. […] The concentrations of all the other compounds were lower by at least a factor of 10, but nevertheless exceeded the concentrations required to inhibit CpIMPDH.

B. anthracis IMPDH, sequence (A0A6L8P2U9 1-487): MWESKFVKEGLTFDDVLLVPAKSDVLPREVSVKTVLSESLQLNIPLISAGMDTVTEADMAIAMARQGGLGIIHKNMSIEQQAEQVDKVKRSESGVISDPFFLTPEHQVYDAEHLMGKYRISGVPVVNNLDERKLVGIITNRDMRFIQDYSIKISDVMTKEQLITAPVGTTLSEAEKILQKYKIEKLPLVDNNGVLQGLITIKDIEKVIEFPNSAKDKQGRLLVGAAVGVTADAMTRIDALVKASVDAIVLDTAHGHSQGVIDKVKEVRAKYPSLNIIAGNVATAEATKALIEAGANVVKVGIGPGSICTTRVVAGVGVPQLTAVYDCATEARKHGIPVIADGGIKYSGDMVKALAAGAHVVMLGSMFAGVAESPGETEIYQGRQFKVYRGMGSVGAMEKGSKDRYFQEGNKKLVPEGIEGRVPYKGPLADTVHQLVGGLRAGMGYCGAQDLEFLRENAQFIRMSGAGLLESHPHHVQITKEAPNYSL
F. tularensis IMPDH, sequence (Q5NFC2 1-486): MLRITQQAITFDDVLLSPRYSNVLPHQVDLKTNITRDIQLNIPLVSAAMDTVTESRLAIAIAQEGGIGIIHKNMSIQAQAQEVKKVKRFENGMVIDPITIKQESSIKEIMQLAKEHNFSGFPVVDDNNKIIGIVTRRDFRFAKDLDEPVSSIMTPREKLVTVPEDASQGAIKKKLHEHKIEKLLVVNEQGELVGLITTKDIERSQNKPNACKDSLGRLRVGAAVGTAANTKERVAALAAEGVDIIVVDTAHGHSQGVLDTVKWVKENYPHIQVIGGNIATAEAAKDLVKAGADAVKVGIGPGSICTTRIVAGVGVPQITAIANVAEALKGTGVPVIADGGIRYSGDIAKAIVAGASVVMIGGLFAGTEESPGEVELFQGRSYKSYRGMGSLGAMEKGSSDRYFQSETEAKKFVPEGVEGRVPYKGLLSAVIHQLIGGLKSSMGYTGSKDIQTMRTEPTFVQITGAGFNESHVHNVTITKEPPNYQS
A. baumannii IMPDH, sequence (D0CF46 entry or part of it): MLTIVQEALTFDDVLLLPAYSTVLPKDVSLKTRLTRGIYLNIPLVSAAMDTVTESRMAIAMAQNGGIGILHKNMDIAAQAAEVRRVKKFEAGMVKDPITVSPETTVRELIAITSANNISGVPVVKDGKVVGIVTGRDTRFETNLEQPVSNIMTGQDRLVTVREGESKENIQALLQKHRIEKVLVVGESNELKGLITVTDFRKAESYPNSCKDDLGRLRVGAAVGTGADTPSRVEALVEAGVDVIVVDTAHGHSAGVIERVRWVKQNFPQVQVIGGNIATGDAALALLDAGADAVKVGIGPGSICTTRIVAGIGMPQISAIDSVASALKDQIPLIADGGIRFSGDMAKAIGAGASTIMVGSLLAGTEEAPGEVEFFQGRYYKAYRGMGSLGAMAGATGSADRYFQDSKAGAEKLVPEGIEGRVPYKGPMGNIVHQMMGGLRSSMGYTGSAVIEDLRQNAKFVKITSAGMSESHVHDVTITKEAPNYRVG
S. pyogenes IMPDH, sequence (P0C0H6 whole entry): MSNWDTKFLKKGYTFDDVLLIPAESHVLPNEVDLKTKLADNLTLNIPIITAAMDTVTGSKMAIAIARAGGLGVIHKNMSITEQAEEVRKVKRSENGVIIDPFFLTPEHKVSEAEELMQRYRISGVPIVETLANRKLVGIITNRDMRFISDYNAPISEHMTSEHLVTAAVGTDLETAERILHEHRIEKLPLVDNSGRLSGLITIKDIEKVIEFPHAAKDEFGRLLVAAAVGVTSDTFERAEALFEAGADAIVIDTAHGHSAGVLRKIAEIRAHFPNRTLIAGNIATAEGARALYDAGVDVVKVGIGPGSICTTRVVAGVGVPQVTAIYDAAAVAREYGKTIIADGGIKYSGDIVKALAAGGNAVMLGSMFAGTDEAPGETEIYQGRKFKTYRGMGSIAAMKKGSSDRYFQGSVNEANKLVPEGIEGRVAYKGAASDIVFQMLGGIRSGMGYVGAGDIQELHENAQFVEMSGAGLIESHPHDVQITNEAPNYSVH

Cn1nc(CC(=O)Nc2ccc3oc4ccccc4c3c2)c2ccccc2c1=O [Compound D73, N-(dibenzo[b,d]furan-2-yl)-2-(3-methyl-4-oxo-3,4-dihydrophthalazin-1-yl)acetamide]
IC50 (Bu. mallei IMPDH): 100 nM
IC50 (F. tularensis IMPDH): 60 nM
IC50 (B. anthracis IMPDH): 270 nM
IC50 (CpIMPDH): 4 nM
IC50 (S. pyogenes IMPDH): > 100000 nM

CC(=NOCCN)c1cccc(C(C)(C)NC(=O)Nc2ccc(Cl)c([N+](=O)[O-])c2)c1 [Compound P131]
impact on fecal microbiota (gut microbiota): no additional impact
intestine and feces concentration over IC50 for CpIMPDH inhibition [1]: more than 100 fold
IC50 (A. baumannii IMPDH): 710 nM
IC50 (B. anthracis IMPDH): 210 nM
in vivo antiparasitic activity, fecal oocysts (in words) (C. parvum): anticryptosporidial activity
cytotoxicity to Caco-2 cells (Caco-2 cells [2]): Some cytotoxicity
plasma half-life ([3]; 250 mg/kg single oral dose, C57BL/6 mice): 4 h
Cmax ([3]; 250 mg/kg single oral dose, C57BL/6 mice, read-out: maximal plasma concentration (Cmax)): 9 µM
plasma pharmacokinetic behavior / systemic distribution (in words) ([3]; mouse, in vivo): poor systemic distribution
uptake/accumulation in Caco-2 cells (in words) (Caco-2 cells [4]): millimolar concentrations
